According to US8906852B2 (MethylGene Inc., priority 2010, dated 2014):

These compounds were tested against T1, VEGFR/KDR (Homo sapiens, UniProt P35968) (assay: VEGFR/KDR kinase inhibition, DELFIA assay). Conditions: ATP 0.6 uM (2x Km), enzyme 5 nM.
T1 construct: made in house; host or cells: Sf9 cells (Spodoptera frugiperda), baculovirus
T1 sequence (P35968 806-1356): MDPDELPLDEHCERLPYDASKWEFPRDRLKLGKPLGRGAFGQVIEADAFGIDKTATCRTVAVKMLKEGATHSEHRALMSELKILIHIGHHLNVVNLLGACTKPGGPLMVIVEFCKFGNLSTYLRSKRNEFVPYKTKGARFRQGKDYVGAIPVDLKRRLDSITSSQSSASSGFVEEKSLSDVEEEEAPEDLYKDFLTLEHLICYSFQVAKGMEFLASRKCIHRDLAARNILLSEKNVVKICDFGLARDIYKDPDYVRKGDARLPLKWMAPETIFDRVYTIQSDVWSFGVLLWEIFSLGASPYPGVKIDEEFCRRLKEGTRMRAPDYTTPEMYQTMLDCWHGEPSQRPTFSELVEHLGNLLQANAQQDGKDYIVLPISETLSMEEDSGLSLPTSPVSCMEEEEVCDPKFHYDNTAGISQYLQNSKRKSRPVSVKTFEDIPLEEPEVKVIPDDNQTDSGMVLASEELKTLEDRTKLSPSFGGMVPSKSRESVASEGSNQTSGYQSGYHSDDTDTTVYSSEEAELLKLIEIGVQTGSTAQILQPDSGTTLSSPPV
Format: biochemical
Protocol: Inhibition of VEGFR/KDR is measured in a DELFIA™ assay (Perkin Elmer). The substrate poly(Glu4, Tyr) is immobilized onto black high-binding polystyrene 96-well plates. The coated plates are washed and stored at 4° C. During the assay, the enzyme is pre-incubated with inhibitor and Mg-ATP on ice in polypropylene 96-well plates for 4 minutes, and then transferred to the coated plates. The subsequent kinase reaction takes place at 30° C. for 10-30 minutes. ATP concentrations in the assay are 0.6 uM for VEGFR/KDR (2× the Km). Enzyme concentration is 5 nM. After incubation, the kinase reactions are quenched with EDTA and the plates are washed. Phosphorylated product is detected by incubation with Europium-labeled anti-phosphotyrosine MoAb. After washing the plates, bound MoAb is detected by time-resolved fluorescence in a Gemini SpectraMax reader (Molecular Devices). Compounds are evaluated over a range of concentrations, and IC50 values (concentration of compounds giving 50% inhibition of enzymatic activity) are determined.
In the case of `O=C(Nc1ccc(Oc2ccnc3cc(-c4ccc(CN5CCOCCOCCOCC5)cn4)sc23)c(F)c1)NC1CC1` [Compound 532], the IC50 is reported as < 50 nM.
For `O=C(Nc1ccc(Oc2ccnc3cc(-c4ccc(C(=O)N5CCCC5)cc4)sc23)c(F)c1)NC1CC1` [Compound 129, 1-cyclopropyl-3-(3-fluoro-4-(2-(4-(pyrrolidine-1-carbonyl)phenyl)thieno[3,2-b]pyridin-7-yloxy)phenyl)urea], the IC50 was < 50 nM.
In the case of `O=C(Nc1ccc(Oc2ccnc3cc(-c4ccc(CN5CCN(C(=O)[C@H](O)CO)CC5)cn4)sc23)c(F)c1)NC1CC1` [Compound 540], the IC50 is reported as < 50 nM.
For `O=C(Nc1ccc(Oc2ccnc3cc(-c4ccc(CNc5ccc(OCCN6CCOCC6)cc5)cn4)sc23)c(F)c1)NC1CC1` [Compound 331, 1-Cyclopropyl-3-(3-fluoro-4-(2-(5-((4-(2-morpholinoethoxy)phenylamino)methyl)pyridin-2-yl)thieno[3,2-b]pyridin-7-yloxy)phenyl)urea], the IC50 was < 50 nM.
For `COCCN(Cc1ccc(-c2cc3nccc(Oc4ccc(NC(=S)NC5CC5)cc4F)c3s2)nc1)C(C)=O` [Compound 504, N-((6-(7-(4-(3-cyclopropylthioureido)-2-fluorophenoxy)thieno[3,2-b]pyridin-2-yl)pyridin-3-yl)methyl)-N-(2-methoxyethyl)acetamide], the IC50 was < 50 nM.
`O=C(Nc1ccc(Oc2ccnc3cc(-c4cn(CCN5CCOCC5)nn4)sc23)c(F)c1)NC1CC1` [Compound 364] was tested, and the IC50 was < 50 nM.
For `CN(CCF)C1CCN(Cc2ccc(-c3cc4nccc(Oc5ccc(NC(=O)NC6CC6)cc5F)c4s3)nc2)CC1` [Compound 421, 1-Cyclopropyl-3-(3-fluoro-4-(2-(5-((4-((2-fluoroethyl)(methyl)amino)piperidin-1-yl)methyl)pyridin-2-yl)thieno[3,2-b]pyridin-7-yloxy)phenyl)urea], the IC50 was < 50 nM.
With `CC(C)(CO)C(=O)N1CCN(Cc2ccc(-c3cc4nccc(Oc5ccc(NC(=O)NC6CC6)cc5F)c4s3)nc2)CC1` [Compound 537] the IC50 was < 50 nM.
With `CCOC(=O)CC1CCN(Cc2ccc(-c3cc4nccc(Oc5ccc(NC(=O)NC6CC6)cc5F)c4s3)nc2)CC1` [Compound 59, ethyl 2-(1-((6-(7-(4-(3-cyclopropylureido)-2-fluorophenoxy)-thieno[3,2-b]pyridin-2-yl)pyridin-3-yl)methyl)piperidin-4-yl)acelate] the IC50 was < 50 nM.
In the case of `O=C(O)CCCCCN1CCN(Cc2ccc(-c3cc4nccc(Oc5ccc(NC(=O)NC6CC6)cc5F)c4s3)nc2)CC1` [Compound 520, 6-(4-((6-(7-(4-(3-cyclopropylureido)-2-fluorophenoxy)thieno[3,2-b]pyridin-2-yl)pyridin-3-yl)methyl)piperazin-1-yl)hexanoic acid], the IC50 is reported as < 50 nM.
For `CN(C)C(=O)c1cc2nccc(Oc3ccc(NC(=O)NC4CC4)cc3F)c2s1` [Compound 442], the IC50 was < 50 nM.
With `COCCOCCOCCOCCNC(=O)c1ccc(-c2cc3nccc(Oc4ccc(NC(=O)NC5CC5)cc4F)c3s2)nc1` [Compound 229, 6-(7-(4-(3-cyclopropylureido)-2-fluorophenoxy)thieno[3,2-b]pyridin-2-yl)-N-(2,5,8,11-tetraoxatridecan-13-yl)nicotinamide] the IC50 was < 50 nM.
An IC50 of 100 to 250 nM was found for `COCCNCc1ccc(-c2cc3nccc(Oc4ccc(NC(=O)NC5CC5)nc4)c3s2)nc1` [Compound 29, 1-cyclopropyl-3-(5-(2-(5-((2-methoxyethylamino)methyl)pyridin-2-yl)thieno[3,2-b]-pyridin-7-yloxy)pyridin-2-yl)urea] in this work.
With `CN(C)[C@H]1CCN(C(=O)Cn2cc(-c3cc4nccc(Oc5ccc(NC(=O)NC6CC6)cc5F)c4s3)nn2)C1` [Compound 376] the IC50 was < 50 nM.
In the case of `O=C(O)CCCCCCCN1CCN(Cc2ccc(-c3cc4nccc(Oc5ccc(NC(=O)NC6CC6)cc5F)c4s3)nc2)CC1` [Compound 522, 8-(4-((6-(7-(4-(3-cyclopropylureido)-2-fluorophenoxy)thieno[3,2-b]pyridin-2-yl)pyridin-3-yl)methyl)piperazin-1-yl)octanoic acid], the IC50 is reported as < 50 nM.
For `CC(C)(C)OC(=O)N1CCN(C(=O)Cn2cc(-c3cc4nccc(Oc5ccc(NC(=O)NC6CC6)cc5F)c4s3)nn2)CC1` [Compound 388], the IC50 was < 50 nM.
In the case of `COCCN(Cc1ccc(-c2cc3nccc(Oc4ccc(NC(=O)NC5CC5)cc4F)c3s2)nc1)C(=O)CNC(=O)CN` [Compound 92-A, 2-(2-aminoacetamido)-N-((6-(7-(4-(3-cyclopropylureido)-2-fluorophenoxy)thieno[3,2-b]pyridin-2-yl)pyridin-3-yl)methyl)-N-(2-methoxyethyl)acetamide], the IC50 is reported as < 50 nM.
For `O=C(Nc1ccc(Oc2ccnc3cc(-c4ccc(CN5CC(O)CC5=O)cn4)sc23)c(F)c1)NC1CC1` (racemic) [Compound 111, (±)-1-cyclopropyl-3-(3-fluoro-4-(2-(5-((4-hydroxy-2-oxopyrrolidin-1-yl)methyl)pyridin-2-yl)thieno[3,2-b]pyridin-7-yloxy)phenyl)urea], the IC50 was < 50 nM.
`O=C(CO)NC1CCN(Cc2ccc(-c3cc4nccc(Oc5ccc(NC(=O)NC6CC6)cc5F)c4s3)nc2)CC1` [Compound 346] was tested, and the IC50 was < 50 nM.
An IC50 of 50 to 100 nM was found for `O=C(Nc1ccc(Oc2ccnc3cc(C4=CCNCC4)sc23)c(F)c1)NC1CC1` [Compound 271-A, 1-Cyclopropyl-3-(3-fluoro-4-(2-(1,2,3,6-tetrahydropyridin-4-yl)thieno[3,2-b]pyridin-7-yloxy)phenyl)urea] in this work.
In the case of `COCCNCc1ccc(-c2cc3nccc(Oc4ccc(NC(CC(=O)N(C)c5ccccc5)C(F)(F)F)cc4F)c3s2)nc1` (centres unmarked) [Compound 21, 4,4,4-trifluoro-3-(3-fluoro-4-(2-(5-((2-methoxyethylamino)methyl)pyridin-2-yl)thieno[3,2-b]pyridin-7-yloxy)phenylamino)-N-methyl-N-phenylbutanamide], the IC50 is reported as < 50 nM.
In the case of `CS(=O)(=O)N1CCN(Cc2ccc(-c3cc4nccc(Oc5ccc(NC(=O)NC6CC6)cc5F)c4s3)nc2)CC1` [Compound 54-F, 1-cyclopropyl-3-(3-fluoro-4-(2-(5-((4-(methylsulfonyl)piperazin-l-yl)methyl)pyridin-2-yl)thieno[3,2-b]pyridin-7-yloxy)phenyl)urea], the IC50 is reported as < 50 nM.
For `O=C(Nc1ccc(Oc2ccnc3cc(-c4ccc(CN5CC6CNCC6C5)cn4)sc23)c(F)c1)NC1CC1` (centres unmarked) [Compound 311, 1-cyclopropyl-3-(3-fluoro-4-(2-(5-((hexahydropyrrolo[3,4-c]pyrrol-2(1H)-yl)methyl)pyridin-2-yl)thieno[3,2-b]pyridin-7-yloxy)phenyl)urea], the IC50 was < 50 nM.
In the case of `O=C(Nc1ccc(Oc2ccnc3cc(-c4ccc(C(=O)N5CCN(CCO)CC5)cn4)sc23)c(F)c1)NC1CC1` [Compound 581, 1-cyclopropyl-3-(3-fluoro-4-(2-(5-(4-(2-hydroxyethyl)piperazine-1-carbonyl)pyridin-2-yl)thieno[3,2-b]pyridin-7-yloxy)phenyl)urea], the IC50 is reported as < 50 nM.
In the case of `COCCOCCOCCOCCN(Cc1ccc(-c2cc3nccc(Oc4ccc(NC(=O)NC5CC5)c(F)c4F)c3s2)nc1)C(=O)CO` [Compound 259, N-((6-(7-(4-(3-cyclopropylureido)-2,3-difluorophenoxy)thieno-[3,2-b]pyridin-2-yl)pyridin-3-yl)methyl)-2-hydroxy-N-(2,5,8,11-tetraoxatridecan-13-yl)acetamide], the IC50 is reported as < 50 nM.
In the case of `O=C(Nc1ccc(Oc2ccnc3cc(-c4ccc(CN5CCNC5=O)cn4)sc23)c(F)c1)NC1CC1` [Compound 143, 1-cyclopropyl-3-(3-fluoro-4-(2-(5-((2-oxoimidazolidin-1-yl)methyl)pyridin-2-yl)thieno[3,2-b]pyridin-7-yloxy)phenyl)urea], the IC50 is reported as < 50 nM.
An IC50 of 50 to 100 nM was found for `CCNC(=O)N(CCOC)Cc1ccc(-c2cc3nccc(Oc4ccc(NC(=S)NC5CC5)cc4F)c3s2)nc1` [Compound 503, 1-((6-(7-(4-(3-cyclopropylthioureido)-2-fluorophenoxy)thieno[3,2-b]pyridin-2-yl)pyridin-3-yl)methyl)-3-ethyl-1-(2-methoxyethyl)urea] in this work.
`O=C(Nc1ccc(Oc2ccnc3cc(-c4cn(CCN5CCCC5=O)cn4)sc23)c(F)c1)NC1CC1` [Compound 267, 1-cyclopropyl-3-(3-fluoro-4-(2-(1-(2-(2-oxopyrrolidin-1-yl)ethyl)-1H-imidazol-4-yl)thieno[3,2-b]pyridin-7-yloxy)phenyl)urea] was tested, and the IC50 was < 50 nM.
In the case of `COCCNCCc1ccc(-c2cc3nccc(Oc4ccc(NC(=O)C5(C(=O)Nc6ccc(F)cc6)CC5)cc4F)c3s2)nc1` [Compound 185, N-(3-fluoro-4-(2-(5-(2-(2-methoxyethylamino)ethyl)pyridin-2-yl)thieno[3,2-b]pyridin-7-yloxy)phenyl)-N-(4-fluorophenyl)cyclopropane-1,1-dicarboxamide], the IC50 is reported as < 50 nM.
For `COCCN(Cc1cnc(-c2cc3nccc(Oc4ccc(NC(=O)NC5CC5)cc4F)c3s2)n1C)C(=O)NC1CC1` [Compound 161, 1-((2-(7-(2-fluoro-4-cyclopropylaminocarbonylaminophenoxy)thieno[3,2-b]pyridin-2-yl)-1-methyl-1H-imidazol-5-yl)methyl)-3-cyclopropyl-1-(2-methoxyethyl)urea], the IC50 was < 50 nM.
For `O=C(Nc1ccc(Oc2ccnc3cc(-c4ccc(CN5CCC(C(=O)NCCO)CC5)cn4)sc23)c(F)c1)NC1CC1` [Compound 483, 1-((6-(7-(4-(3-cyclopropylureido)-2-fluorophenoxy)thieno[3,2-b]pyridin-2-yl)pyridin-3-yl)methyl)-N-(2-hydroxyethyl)piperidine-4-carboxamide], the IC50 was < 50 nM.
For `CNC(=O)NC1CCN(Cc2ccc(-c3cc4nccc(Oc5ccc(NC(=O)NC6CC6)cc5F)c4s3)nc2)CC1` [Compound 352], the IC50 was < 50 nM.
